Reference: ChEMBL document CHEMBL4616615, “Screening for tyrosinase inhibitors from actinomycetes; identification of trichostatin derivatives from Streptomyces sp. CA-129531 and scale up production in bioreactor” (Bioorg Med Chem Lett, 2020)

Assays:
MCF7 = test: cells; settings: Homo sapiens
A549 = test: cells; settings: Homo sapiens
Description: Cytotoxicity against human A549 cells assessed as reduction in cell viability

HepG2 = test: cells; settings: Homo sapiens
Description: Cytotoxicity against human HepG2 cells assessed as reduction in cell viability

A2058 = test: Cytotoxicity against human A2058 cells assessed as reduction in cell viability; assay type: cell-based
Mushroom tyrosinase [1] = molecular target: T1, Mushroom tyrosinase (Agaricus bisporus, UniProt O42713+Q00024+C7FF04+C7FF05); test: Inhibition of mushroom tyrosinase using L-DOPA as substrate
MIA PaCa-2 = test: cells; settings: Homo sapiens
Description: Cytotoxicity against human MIAPaCa2 cells assessed as reduction in cell viability

Mushroom tyrosinase [2] = molecular target: T1, Mushroom tyrosinase; test: Mixed-type of inhibition of mushroom tyrosinase using varying level of L-DOPA as substrate by Dixon plot analysis

Structure (SMILES): CC(/C=C/C(N)=O)=C\[C@@H](C)C(=O)c1ccc(N(C)C)cc1
- IC50 (MCF7): 2.74 µM
- IC50 (A549): 8.3 µM
- IC50 (HepG2): 3.19 µM
- IC50 (A2058): 0.64 µM
- IC50 (Mushroom tyrosinase [1]): 19.18 µM
- IC50 (MIA PaCa-2): 9.46 µM

Structure (SMILES): CNC(=O)/C=C/C(C)=C/[C@@H](C)C(=O)c1ccc(N(C)C)cc1
- IC50 (MCF7): 18.4 µM
- IC50 (A549): > 50 µM
- IC50 (HepG2): 13.1 µM
- IC50 (A2058): > 50 µM
- IC50 (Mushroom tyrosinase [1]): 161.18 µM
- IC50 (MIA PaCa-2): 36.7 µM

Structure (SMILES): CC(/C=C/C(=O)NO)=C\[C@@H](C)C(=O)c1ccc(N(C)C)cc1 [TRICHOSTATIN]
- IC50 (MCF7): 0.3 µM
- IC50 (A549): 1.31 µM
- IC50 (HepG2): 0.38 µM
- IC50 (A2058): 0.43 µM
- Ki (Mushroom tyrosinase [2]): 6.1 µM
- IC50 (Mushroom tyrosinase [1]): 2.18 µM
- IC50 (MIA PaCa-2): 0.9 µM

Structure (SMILES): COc1cccc2c1C(=O)c1c(O)c3c(c(O)c1C2=O)C[C@@](O)(C(=O)CO)C[C@@H]3O[C@H]1C[C@H](N)[C@H](O)[C@H](C)O1 [DOXORUBICIN]
- IC50 (A549): 3.76 µM
- IC50 (HepG2): < 0.11 µM
- IC50 (A2058): < 0.11 µM
- IC50 (MIA PaCa-2): 1.02 µM

Structure (SMILES): CC(/C=C/C(=O)NO[C@@H]1O[C@H](CO)[C@@H](O)[C@H](O)[C@H]1O)=C\[C@@H](C)C(=O)c1ccc(N(C)C)cc1
- IC50 (MCF7): 18.9 µM
- IC50 (A549): 25 µM
- IC50 (HepG2): 17.8 µM
- IC50 (A2058): 37.3 µM
- IC50 (Mushroom tyrosinase [1]): 174.33 µM
- IC50 (MIA PaCa-2): 37.9 µM

Structure (SMILES): CC(/C=C/C(=O)O)=C\[C@H](C)C(=O)c1ccc(N(C)C)cc1
- IC50 (MCF7): > 50 µM
- IC50 (A549): > 50 µM
- IC50 (HepG2): > 50 µM
- IC50 (A2058): > 50 µM
- IC50 (MIA PaCa-2): > 50 µM

Structure (SMILES): CC(/C=C/C(=O)O)=C\[C@@](C)(O)C(=O)c1ccc(N(C)C)cc1
- IC50 (MCF7): > 50 µM
- IC50 (A549): > 50 µM
- IC50 (HepG2): > 50 µM
- IC50 (A2058): > 50 µM
- IC50 (MIA PaCa-2): > 50 µM

Structure (SMILES): CC(/C=C/C(=O)N[C@@H](CCC(N)=O)C(=O)O)=C\[C@@H](C)C(=O)c1ccc(N(C)C)cc1
- IC50 (MCF7): > 50 µM
- IC50 (A549): > 50 µM
- IC50 (HepG2): > 50 µM
- IC50 (A2058): > 50 µM
- IC50 (MIA PaCa-2): > 50 µM
